Source: ChEMBL document CHEMBL1201862, “PubChem BioAssay data set” (2004)
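48-hour exposure; five concentrations; linearly interpolated endpoints. Here, GI50 denotes the concentration required for 50% inhibition of growth.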 Activity calls are given as the source filed them. Cut-off read from the data, not from the text of the source: active = GI50 up to about 1.1 µM and inactive = higher.

Legend:
Assay in all cases: NCI anticancer screen, dose series, 48 h
[1] = system: SW-620
[2] = system: SNB-75
[3] = system: U-251
[4] = system: MCF7
[5] = system: Hs-578T
[6] = system: HCC 2998
[7] = system: SF-539
[8] = system: MDA-N
[9] = system: COLO 205
[10] = system: OVCAR-5
[11] = system: 786-0
[12] = system: SF-295
[13] = system: HT-29
[14] = system: NCI-H23
[15] = system: CAKI-1
[16] = system: IGROV-1
[17] = system: MDA-MB-435
[18] = system: HCT-15
[19] = system: HCT-116
[20] = system: SK-MEL-2
[21] = system: OVCAR-4
[22] = system: SF-268
[23] = system: T47D
[24] = system: SK-MEL-28
[25] = system: NCI/ADR-RES
[26] = system: K562
[27] = system: CCRF-CEM
[28] = system: ACHN
[29] = system: A549
[30] = system: DU-145
[31] = system: NCI-H460
[32] = system: MDA-MB-231
[33] = system: LOX IMVI
[34] = system: SK-MEL-5
[35] = system: SN12C
[36] = system: RXF 393
[37] = system: NCI-H226
[38] = system: M14
[39] = system: SK-OV-3
[40] = system: UACC-257
[41] = system: HOP-92
[42] = system: SR
[43] = system: OVCAR-3
[44] = system: BT-549
[45] = system: UACC-62
[46] = system: A498
[47] = system: PC-3
[48] = system: KM12
[49] = system: HOP-62
[50] = system: MOLT-4
[51] = system: UO-31
[52] = system: NCI-H522
[53] = system: OVCAR-8
[54] = system: EKVX
[55] = system: TK-10
[56] = system: Malme-3M
[57] = system: SNB-19
[58] = system: HL-60
[59] = system: RPMI-8226

SMILES: Cc1c(C(=O)O)n2c(C)nnc2c2ccccc12
- GI50 [1]: > 100 µM (inactive)
- GI50 [2]: 36 µM (inactive)
- GI50 [3]: > 100 µM (inactive)
- GI50 [4]: > 100 µM (inactive)
- GI50 [5]: > 100 µM (inactive)
- GI50 [6]: > 100 µM (inactive)
- GI50 [7]: > 100 µM (inactive)
- GI50 [8]: > 100 µM (inactive)
- GI50 [9]: > 100 µM (inactive)
- GI50 [10]: > 100 µM (inactive)
- GI50 [11]: > 100 µM (inactive)
- GI50 [12]: > 100 µM (inactive)
- GI50 [13]: > 100 µM (inactive)
- GI50 [14]: > 100 µM (inactive)
- GI50 [15]: > 100 µM (inactive)
- GI50 [16]: > 100 µM (inactive)
- GI50 [17]: > 100 µM (inactive)
- GI50 [18]: > 100 µM
- GI50 [19]: > 100 µM (inactive)
- GI50 [20]: > 100 µM (inactive)
- GI50 [21]: > 100 µM (inactive)
- GI50 [22]: > 100 µM (inactive)
- GI50 [23]: > 100 µM (inactive)
- GI50 [24]: > 100 µM (inactive)
- GI50 [25]: > 100 µM (inactive)
- GI50 [26]: > 100 µM (inactive)
- GI50 [27]: > 100 µM (inactive)
- GI50 [28]: > 100 µM (inactive)
- GI50 [29]: > 100 µM (inactive)
- GI50 [30]: > 100 µM (inactive)
- GI50 [31]: > 100 µM (inactive)
- GI50 [32]: > 100 µM (inactive)
- GI50 [33]: > 100 µM (inactive)
- GI50 [34]: > 100 µM (inactive)
- GI50 [35]: > 100 µM (inactive)
- GI50 [36]: > 100 µM (inactive)
- GI50 [37]: > 100 µM (inactive)
- GI50 [38]: > 100 µM (inactive)
- GI50 [39]: > 100 µM (inactive)
- GI50 [40]: > 100 µM (inactive)
- GI50 [41]: > 100 µM (inactive)
- GI50 [42]: > 100 µM (inactive)
- GI50 [43]: > 100 µM (inactive)
- GI50 [44]: > 100 µM (inactive)
- GI50 [45]: > 100 µM (inactive)
- GI50 [46]: > 100 µM (inactive)
- GI50 [47]: > 100 µM (inactive)
- GI50 [48]: > 100 µM (inactive)
- GI50 [49]: > 100 µM (inactive)
- GI50 [50]: > 100 µM (inactive)
- GI50 [51]: 61.5 µM (inactive)
- GI50 [52]: > 100 µM (inactive)
- GI50 [53]: > 100 µM (inactive)
- GI50 [54]: > 100 µM (inactive)
- GI50 [55]: > 100 µM (inactive)

SMILES: Cc1cc(S(=O)(=O)Nc2nc(N)n(-c3ccccc3)n2)c(S)cc1Cl
- GI50 [1]: > 100 µM (inactive)
- GI50 [2]: > 100 µM (inactive)
- GI50 [56]: > 100 µM (inactive)
- GI50 [3]: 60 µM (inactive)
- GI50 [4]: > 100 µM (inactive)
- GI50 [5]: 70 µM (inactive)
- GI50 [6]: > 100 µM (inactive)
- GI50 [7]: 86.3 µM (inactive)
- GI50 [8]: > 100 µM (inactive)
- GI50 [9]: > 100 µM (inactive)
- GI50 [57]: 43.1 µM (inactive)
- GI50 [10]: > 100 µM (inactive)
- GI50 [11]: > 100 µM (inactive)
- GI50 [13]: > 100 µM (inactive)
- GI50 [15]: > 100 µM (inactive)
- GI50 [16]: > 100 µM (inactive)
- GI50 [17]: > 100 µM (inactive)
- GI50 [18]: > 100 µM
- GI50 [19]: > 100 µM (inactive)
- GI50 [20]: > 100 µM (inactive)
- GI50 [21]: > 100 µM (inactive)
- GI50 [22]: > 100 µM (inactive)
- GI50 [23]: > 100 µM (inactive)
- GI50 [24]: > 100 µM (inactive)
- GI50 [25]: > 100 µM (inactive)
- GI50 [26]: > 100 µM (inactive)
- GI50 [27]: > 100 µM (inactive)
- GI50 [28]: > 100 µM (inactive)
- GI50 [29]: > 100 µM (inactive)
- GI50 [30]: > 100 µM (inactive)
- GI50 [31]: > 100 µM (inactive)
- GI50 [32]: > 100 µM (inactive)
- GI50 [33]: > 100 µM (inactive)
- GI50 [34]: > 100 µM (inactive)
- GI50 [58]: > 100 µM (inactive)
- GI50 [35]: > 100 µM (inactive)
- GI50 [36]: > 100 µM (inactive)
- GI50 [37]: > 100 µM (inactive)
- GI50 [38]: > 100 µM (inactive)
- GI50 [39]: > 100 µM (inactive)
- GI50 [40]: > 100 µM (inactive)
- GI50 [42]: > 100 µM (inactive)
- GI50 [59]: > 100 µM (inactive)
- GI50 [43]: > 100 µM (inactive)
- GI50 [44]: 45.1 µM (inactive)
- GI50 [45]: > 100 µM (inactive)
- GI50 [46]: > 100 µM (inactive)
- GI50 [47]: > 100 µM (inactive)
- GI50 [48]: > 100 µM (inactive)
- GI50 [49]: > 100 µM (inactive)
- GI50 [50]: > 100 µM (inactive)
- GI50 [51]: > 100 µM (inactive)
- GI50 [52]: > 100 µM (inactive)
- GI50 [53]: > 100 µM (inactive)
- GI50 [54]: > 100 µM (inactive)
- GI50 [55]: > 100 µM (inactive)

SMILES: CC[C@H](C)C1=C(O)[N@+]2([O-])Oc3ccc(-c4c(O)c(O)c(-c5ccc(OC(C)=O)cc5)c(OC(C)=O)c4OC(C)=O)cc3O[C@]2([C@@H](C)CC)C(=O)N1O
- GI50 [1]: 10.7 µM (inactive)
- GI50 [56]: 17.1 µM (inactive)
- GI50 [3]: 18.6 µM (inactive)
- GI50 [4]: 24.2 µM (inactive)
- GI50 [5]: 39.2 µM (inactive)
- GI50 [6]: 11.7 µM (inactive)
- GI50 [7]: 13.1 µM (inactive)
- GI50 [8]: 34 µM (inactive)
- GI50 [9]: 16.3 µM (inactive)
- GI50 [57]: 45.3 µM (inactive)
- GI50 [10]: 47.1 µM (inactive)
- GI50 [11]: 21.4 µM (inactive)
- GI50 [12]: 21.6 µM (inactive)
- GI50 [13]: 25.3 µM (inactive)
- GI50 [14]: > 50 µM (inactive)
- GI50 [15]: 34.4 µM (inactive)
- GI50 [16]: 8.85 µM (inactive)
- GI50 [17]: 27.9 µM (inactive)
- GI50 [18]: 19.7 µM
- GI50 [19]: 9.86 µM (inactive)
- GI50 [20]: > 50 µM (inactive)
- GI50 [21]: 8.79 µM (inactive)
- GI50 [22]: 33.3 µM (inactive)
- GI50 [23]: 21.7 µM (inactive)
- GI50 [24]: 33 µM (inactive)
- GI50 [25]: 12.9 µM (inactive)
- GI50 [26]: 12.3 µM (inactive)
- GI50 [27]: 10.3 µM (inactive)
- GI50 [28]: 26.3 µM (inactive)
- GI50 [29]: 16.3 µM (inactive)
- GI50 [30]: > 50 µM (inactive)
- GI50 [31]: 21.5 µM (inactive)
- GI50 [32]: 21.9 µM (inactive)
- GI50 [33]: 12.9 µM (inactive)
- GI50 [34]: 20 µM (inactive)
- GI50 [58]: 15.2 µM (inactive)
- GI50 [35]: 17.2 µM (inactive)
- GI50 [36]: > 50 µM (inactive)
- GI50 [38]: 27.6 µM (inactive)
- GI50 [39]: 15.4 µM (inactive)
- GI50 [40]: > 50 µM (inactive)
- GI50 [41]: 11.6 µM (inactive)
- GI50 [42]: 12.5 µM (inactive)
- GI50 [59]: 12.8 µM (inactive)
- GI50 [43]: 16.4 µM (inactive)
- GI50 [44]: 32.7 µM (inactive)
- GI50 [45]: 15 µM (inactive)
- GI50 [46]: 12.9 µM (inactive)
- GI50 [47]: 34 µM (inactive)
- GI50 [48]: 29.9 µM (inactive)
- GI50 [49]: 32 µM (inactive)
- GI50 [50]: 12.7 µM (inactive)
- GI50 [51]: > 50 µM (inactive)
- GI50 [52]: 8.43 µM (inactive)
- GI50 [53]: 24.5 µM (inactive)
- GI50 [54]: > 50 µM (inactive)
- GI50 [55]: 25.5 µM (inactive)
